Results reported in patent US5932208A, “Compositions and methods for the use of such compositions in human therapeutics, characterized by the association of a muramyl peptide with a cytokine” (Vacsyn S.A., priority 1993, dated 1999).
Several values for one entry are separate records, joined by “and”; a condition that tells them apart may be missing. Identical values can stand only once.

How the values were obtained:
Swiss mice = assay: Endotoxic shock (D-galactosamine + LPS) model in Swiss mice; assay type: in vivo; conditions: for Average % mortality / Number of dead mice per total tested, Exp. 1 / Number of dead mice per total tested, Exp. 2 / Number of dead mice per total tested, Exp. 3: intravenously, mortality after 48 hours
Experimental: The administration of D-galactosamine with lipopolysaccharide (LPS) to Swiss mice induces endotoxic shock with at least 70% mortality in 24-48 hours. The prophylactic or therapeutic effect of murabutide was studied in this model in order to evaluate its anti-inflammatory activity when it is administered alone or in combination with α/β-IFN. […] On the contrary, pretreatment with a combination of murabutide and α/β-interferon induces significant protection with an incidence of mortality of only 33% (against 78% in the controls).
^1) The Swiss mice were tested intraperitoneally at time 0 with 18 mg
of Dgalactosamine + 50 ng of LPS. The mortality was measured after 48
^2) The compounds are administered intravenously either 3 hours befor

neutrophils = assay: Neutrophil counts in healthy volunteers after single subcutaneous administration; assay type: in vivo, human; conditions: α-IFN 0, muramyl peptide 100 μg/Kg alone; highest value during the 24 hours after administration
Experimental: (§1) They receive subcutaneously the mixtures described in the following table I of murabutide (MUB) or murametide (MUM) with α-interferon 2a (α-IFN).
The subjects are monitored during the three days following the administration of the IFN and/or the muramyl peptides, and all of the tests and investigations necessary to carry out a phase I test are effected.
Haematological analysis with white corpuscle counts at the time of injection and then 6 hours, 12 hours, 24 hours, 36 hours, 60 hours and 72 hours after injection.
The leucocyte counts are carried out in a COULTER COUNTER automatic cell counter.
Neutrophils are the cells which are the most affected by leucopenic treatments. It is the reduction in the amount of neutrophils which is responsible for the reduction in the non-specific immune defences in subjects subjected to radiotherapy or to cytotoxic and/or myelotoxic chemotherapy. To make reading easier, only the neutrophil counts made at the time when their variation is at its greatest have been given.

sTNFR2 = assay: In vitro incubation of blood of healthy volunteers: sTNFR2 secreted; assay type: cell-based, human
Experimental: (§2) Blood taken from healthy volunteers was incubated in vitro with different combinations associating murabutide and α-IFN. The murabutide was used at a dose of 20 μg/ml and the IFN was used at a dose of from 30 to 100 μ/ml. At different times in the course of incubation, blood samples are taken and the mononucleated cells are separated on a Ficoll gradient. The total RNA is extracted, purified and separated by electrophoresis. It is then analysed in accordance with the Schreck method in order to determine by a hybridisation technique what genes were induced by the treatment.
(§3) Studies similar to those described above were carried out in order to study the murabutide-GM-CSF association. These studies were carried out in vitro on the cells of healthy volunteers after incubation with immunomodulators alone or in association.
(§4) Specific cytokines were sought and measured in the supernatants (see Table XIII).

circulating neutrophils = assay: Neutrophil count after repeated administration to humans (days 1, 3 and 5); assay type: in vivo, human; conditions: α-IFN 2a 1 MU and/or murabutide 7 mg on days 1, 3 and 5
Experimental: Phase I/IIa tests were carried out on 3 groups of 6 healthy volunteers who received the following treatments on days 1, 3 and 5:
a) α-IFN 2a (1 MU) Roferon;
c) the association of the two immunostimulants.
By studying their influence on the number of circulating neutrophils.

neopterine = assay: Neopterine test (RIA) on sera of healthy volunteers; assay type: in vivo, human; conditions: for Influence on the amount of neopterine, in words: dose of 100 μg/kg alone; for Neopterine in serum: muramyl peptide 100 μg/Kg alone (α-IFN 0)
Experimental: as §1
(§5) Blood samples are taken before injection and 6 hours, 24 hours and 48 hours after injection, in order to collect the serum necessary to carry out the tests for neopterine, interleukin 1, 6 and 8, G-CSF, IL-1 RA and α-TNF.
(§6) The blood samples for the serum tests are centrifuged at 4° C. and 3000 rpm for 10' immediately after they are taken. The sera are stored at -20° C. The leucocyte counts and the neopterine and cytokine tests are carried out using commercial kits.
The tests are carried out on sera taken at 0, 24 and 48 hours. An RIA (Radio Immuno Assay) kit (Behring Diagnostic, France) is used. The results are expressed in […], and the normal values vary from […].

[1] = tested on: IL-1 receptor antagonist (IL-1 RA); assay: IL-1 receptor antagonist (IL-1 RA) test on sera of healthy volunteers; assay type: in vivo, human; conditions: α-IFN 0, muramyl peptide 100 μg/Kg alone; 6 hours after administration
Experimental: as §1, §5, §6

IL-6 [2] = assay: IL-6 test (Elisa) on sera of healthy volunteers; assay type: in vivo, human; conditions: α-IFN 0, muramyl peptide 100 μg/Kg alone; 6 hours after administration
Experimental: as §1, §5, §6
The test is carried out using an Elisa test kit (British Biotechnology Products Ltd.) on sera taken at time 0 and after 6 hours. The figures express the pg/ml, the normal values are less than 6 pg.

IL-6 [3] = assay: In vitro incubation of blood of healthy volunteers: IL-6 secreted; assay type: cell-based, human
Experimental: as §2, §3, §4

G-CSF = G-CSF test on sera of healthy volunteers; assay type: in vivo, human; conditions: α-IFN 0, muramyl peptide 100 μg/Kg alone; for Amounts of G-CSF in serum after 0 hour: before administration
Experimental: as §1, §5, §6
These tests were carried out using the British Biotechnology Products Ltd. kit (see Table VI).

[4] = tested on: Soluble TNF receptor (STNF-R); assay: Soluble TNF receptor (STNF-R) ELISA test in serum; assay type: in vivo, human; conditions: α-IFN 6 × 10^6 units and/or murabutide 100 μg/Kg
Experimental: These tests are carried out by an ELISA test in the serum of subjects having 6M units of IFN. At that dose, there is already an appreciable increase in the amount of STNF-R but the addition of murabutide permits a significant increase in the secretion of that mediator.

IL-1 RA = assay: In vitro incubation of blood of healthy volunteers: IL-1 RA secreted; assay type: cell-based, human
Experimental: as §2, §3, §4

KHT sarcoma cells = assay: KHT sarcoma model in C3H/HeN mice, IL-2 with murametide; assay type: in vivo
Experimental: A murine model has been developed in C3H/HeN mice. KHT sarcoma cells are administered by the venous route. After 4 days and 6 days they are treated with:
c) the association of the two immunomodulators;
d) a fourth group is not treated.

[5] = +1 hr, Murabutide 15 mg/kg and/or α/β-IFN 1.25 × 10^6 IU/kg (alone: 11.25 × 10^6 IU/kg [sic])
[6] = Murabutide 15 mg/kg alone, -3 hrs
[7] = GM-CSF 1 ng/ml, without or with Murabutide 20 μg/ml
[8] = GM-CSF 5 ng/ml, without or with Murabutide 20 μg/ml

Compound: CCCCOC(=O)[C@@H](CCC(N)=O)NC(=O)[C@H](C)NC(=O)[C@@H](C)O[C@H]1[C@H](O)[C@@H](CO)OC(O)[C@@H]1NC(C)=O (stereo partly shown) [Murabutide, murabutide]
- Average % mortality (Swiss mice; [5]): 31%
- Number of dead mice per total tested, Exp. 1 (Swiss mice; [5]): 2/9
- Number of dead mice per total tested, Exp. 2 (Swiss mice; [5]): 3/8
- Number of dead mice per total tested, Exp. 3 (Swiss mice; [5]): 3/9
- Average % mortality (Swiss mice; [6]): 74%
- Number of dead mice per total tested, Exp. 1 (Swiss mice; [6]): 7/9
- Number of dead mice per total tested, Exp. 2 (Swiss mice; [6]): 7/8
- Number of dead mice per total tested, Exp. 3 (Swiss mice; [6]): 6/10
- Curative effect, in words (Swiss mice; administration 1 hour after the induction of endotoxic shock): significant curative effect
- Prophylactic effect against the galactosamine/LPS mixture, in words (Swiss mice; pretreatment of the mice): does not give rise to a prophylactic effect
- Neutrophil count % base line (neutrophils): 268 ± 43 % base line
- Average amounts of cytokines secreted: sTNFR2 (sTNFR2; Murabutide 20 μg/ml alone): 1171 ± 478 pg/mL
- Neutrophil count (% of the base line) after 3 hours (circulating neutrophils; day of treatment 1): 139 ± 26 % of the base line
- Neutrophil count (% of the base line) after 6 hours (circulating neutrophils; day of treatment 1): 256 ± 51 % of the base line
- Neutrophil count (% of the base line) after 12 hours (circulating neutrophils; day of treatment 1): 227 ± 46 % of the base line
- Neutrophil count (% of the base line) after 3 hours (circulating neutrophils; day of treatment 3): 133 ± 24 % of the base line
- Neutrophil count (% of the base line) after 6 hours (circulating neutrophils; day of treatment 3): 182 ± 27 % of the base line
- Neutrophil count (% of the base line) after 12 hours (circulating neutrophils; day of treatment 3): 176 ± 59 % of the base line
- Neutrophil count (% of the base line) after 3 hours (circulating neutrophils; day of treatment 5): 107 ± 19 % of the base line
- Neutrophil count (% of the base line) after 6 hours (circulating neutrophils; day of treatment 5): 150 ± 28 % of the base line
- Neutrophil count (% of the base line) after 12 hours (circulating neutrophils; day of treatment 5): 153 ± 23 % of the base line
- Influence on the amount of neopterine, in words (neopterine): does not influence the amount significantly
- Neopterine in serum (neopterine; T 0 hours): 6.37 ± 0.99 nM
- Neopterine in serum (neopterine; T 24 hours): 7.33 ± 0.75 nM
- Neopterine in serum (neopterine; T 48 hours): 8.22 ± 1.39 nM
- Amounts of IL-1 RA in the serum [1]: 496 ± 326 pg/mL
- Amounts of IL-6 in the serum (IL-6 [2]): 2.80 ± 1.60 pg/mL and 4.30 ± 1.80 pg/mL
- Average amounts of cytokines secreted: IL-6 (IL-6 [3]; Murabutide 20 μg/ml alone): 15.5 ± 11.3 pg/mL
- Amounts of G-CSF in serum after 6 hours (G-CSF): 18 ± 9
- Amounts of G-CSF in serum after 0 hour (G-CSF): < 10
- Amount of STNF-R in the serum, 0 hour [4]: 195 ± 28 pg/mL
- Amount of STNF-R in the serum, 6 hours [4]: 616 ± 65 pg/mL
- STNF-R net increase ([4]; 6 hours versus 0 hour): 31 ± 37 pg/mL
- Average amounts of cytokines secreted: IL-1 RA (IL-1 RA; Murabutide 20 μg/ml alone): 7.8 ± 6.0 ng/mL

Compound: COC(=O)[C@@H](CCC(N)=O)NC(=O)[C@H](C)NC(=O)C(C)O[C@H]1[C@H](O)[C@@H](CO)O[C@H](O)[C@@H]1NC(C)=O (stereo partly shown) [Murametide, murametide]
- Neutrophil count % base line (neutrophils): 279 ± 67 % base line
- Antitumour activity (KHT sarcoma cells; mice having pulmonary sarcoma metastases, preliminary data): no antitumour activity
- Toxicity of IL-2 in mice having tumours (KHT sarcoma cells; mice having tumours): reduces the toxicity of IL-2
- Influence on the amount of neopterine, in words (neopterine): does not influence the amount significantly
- Neopterine in serum (neopterine; T 0 hours): 5.43 ± 0.66 nM
- Neopterine in serum (neopterine; T 24 hours): 7.14 ± 1 nM
- Neopterine in serum (neopterine; T 48 hours): 7.39 ± 1.37 nM
- Amounts of G-CSF in serum after 6 hours (G-CSF): 73 ± 115
- Amounts of G-CSF in serum after 0 hour (G-CSF): 61 ± 103

Compound: GM-CSF: cytokine GM-CSF
- Average amounts of cytokines secreted: sTNFR2 (sTNFR2; [7]): 1027 ± 624 pg/mL
- Average amounts of cytokines secreted: sTNFR2 (sTNFR2; [8]): 1359 ± 350 pg/mL
- Average amounts of cytokines secreted: IL-6 (IL-6 [3]; [7]): 2.0 ± 1.5 pg/mL
- Average amounts of cytokines secreted: IL-6 (IL-6 [3]; [8]): 2.3 ± 2.1 pg/mL
- Average amounts of cytokines secreted: IL-1 RA (IL-1 RA; [7]): 4.0 ± 1.4 ng/mL
- Average amounts of cytokines secreted: IL-1 RA (IL-1 RA; [8]): 8.7 ± 10.0 ng/mL
